From ChEMBL document CHEMBL1201862, “PubChem BioAssay data set” (2004)
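Cells were grown in 96-well plates and exposed to each compound for 48 hours at five concentrations; endpoints were interpolated linearly between bracketing concentrations, or set to the highest concentration if not reached. The concentration for 50% growth inhibition is given as GI50.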 Activity calls are given as the source filed them. No stated cut-off is given here; in the data, active = GI50 up to about 1.1 µM and inactive = higher.

What was measured:
Assay in all cases: NCI anticancer screen, dose series, 48 h
786-0 = test system: 786-0
A498 = test system: A498
ACHN = test system: ACHN
BT-549 = test system: BT-549
COLO 205 = test system: COLO 205
HCC 2998 = test system: HCC 2998
HCT-116 = test system: HCT-116
HOP-62 = test system: HOP-62
HOP-92 = test system: HOP-92
Hs-578T = test system: Hs-578T
MOLT-4 = test system: MOLT-4
NCI-H23 = test system: NCI-H23
OVCAR-3 = test system: OVCAR-3
OVCAR-4 = test system: OVCAR-4
OVCAR-8 = test system: OVCAR-8
SF-295 = test system: SF-295
SF-539 = test system: SF-539
SK-MEL-5 = test system: SK-MEL-5
SN12C = test system: SN12C
SNB-19 = test system: SNB-19

COc1ccc(C(=O)Nc2ccc3oc(-c4ccccc4)nc3c2)cc1
GI50 (786-0): 92.7 µM (inactive)
GI50 (A498): > 100 µM (inactive)
GI50 (ACHN): > 100 µM (inactive)
GI50 (BT-549): > 100 µM (inactive)
GI50 (COLO 205): > 100 µM (inactive)
GI50 (HCC 2998): > 100 µM (inactive)
GI50 (HCT-116): > 100 µM (inactive)
GI50 (HOP-62): 76.6 µM (inactive)
GI50 (HOP-92): > 100 µM (inactive)
GI50 (Hs-578T): > 100 µM (inactive)
GI50 (MOLT-4): > 100 µM (inactive)
GI50 (NCI-H23): > 100 µM (inactive)
GI50 (OVCAR-3): > 100 µM (inactive)
GI50 (OVCAR-4): > 100 µM (inactive)
GI50 (OVCAR-8): 22.3 µM (inactive)
GI50 (SF-295): > 100 µM (inactive)
GI50 (SF-539): 32.5 µM (inactive)
GI50 (SK-MEL-5): > 100 µM (inactive)
GI50 (SN12C): > 100 µM (inactive)
GI50 (SNB-19): 50.5 µM (inactive)

COC1=CC(=O)N(C)C(O)C1(C#N)OC1OC(CO)C(O)C(O)C1O (stereo not given)
GI50 (786-0): > 100 µM (inactive)
GI50 (A498): > 100 µM (inactive)
GI50 (ACHN): > 100 µM (inactive)
GI50 (BT-549): > 100 µM (inactive)
GI50 (COLO 205): > 100 µM (inactive)
GI50 (HCC 2998): > 100 µM (inactive)
GI50 (HCT-116): > 100 µM (inactive)
GI50 (HOP-62): > 100 µM (inactive)
GI50 (HOP-92): > 100 µM (inactive)
GI50 (Hs-578T): > 100 µM (inactive)
GI50 (MOLT-4): > 100 µM (inactive)
GI50 (NCI-H23): > 100 µM (inactive)
GI50 (OVCAR-3): > 100 µM (inactive)
GI50 (OVCAR-4): > 100 µM (inactive)
GI50 (OVCAR-8): > 100 µM (inactive)
GI50 (SF-295): > 100 µM (inactive)
GI50 (SF-539): > 100 µM (inactive)
GI50 (SK-MEL-5): > 100 µM (inactive)
GI50 (SN12C): > 100 µM (inactive)
GI50 (SNB-19): > 100 µM (inactive)

CC(=O)NC1C(OCc2ccccc2)OC(CO)C(O)C1OCC(=O)NC(C(=O)NC(CCC(=O)NCCCCCC(=O)Nc1ccc2c(c1)CN1C(=O)c3ccccc3C1=N2)C(N)=O)C(C)C (stereo not given)
GI50 (786-0): 16.4 µM (inactive)
GI50 (A498): 24.9 µM (inactive)
GI50 (ACHN): 46.3 µM (inactive)
GI50 (BT-549): 21.6 µM (inactive)
GI50 (COLO 205): 47 µM (inactive)
GI50 (HCC 2998): 35.6 µM (inactive)
GI50 (HCT-116): 36.2 µM (inactive)
GI50 (HOP-62): 20.3 µM (inactive)
GI50 (HOP-92): 95.7 µM (inactive)
GI50 (Hs-578T): 23.7 µM (inactive)
GI50 (MOLT-4): > 100 µM (inactive)
GI50 (NCI-H23): 35.3 µM (inactive)
GI50 (OVCAR-3): 67.6 µM (inactive)
GI50 (OVCAR-4): 21.9 µM (inactive)
GI50 (OVCAR-8): 26.4 µM (inactive)
GI50 (SF-295): 24.7 µM (inactive)
GI50 (SF-539): 19.1 µM (inactive)
GI50 (SK-MEL-5): 21.4 µM (inactive)
GI50 (SN12C): > 100 µM (inactive)
GI50 (SNB-19): 20.9 µM (inactive)

N#Cc1c(-c2ccc(Cl)cc2)[nH]c(=O)n(C2OC(CO)C(O)C(O)C2O)c1=O (stereo not given)
GI50 (786-0): > 100 µM (inactive)
GI50 (A498): 21.1 µM (inactive)
GI50 (ACHN): > 100 µM (inactive)
GI50 (BT-549): > 100 µM (inactive)
GI50 (COLO 205): > 100 µM (inactive)
GI50 (HCC 2998): > 100 µM (inactive)
GI50 (HCT-116): > 100 µM (inactive)
GI50 (HOP-62): > 100 µM (inactive)
GI50 (HOP-92): 26.2 µM (inactive)
GI50 (Hs-578T): > 100 µM (inactive)
GI50 (MOLT-4): > 100 µM (inactive)
GI50 (NCI-H23): > 100 µM (inactive)
GI50 (OVCAR-3): > 100 µM (inactive)
GI50 (OVCAR-4): > 100 µM (inactive)
GI50 (OVCAR-8): > 100 µM (inactive)
GI50 (SF-295): > 100 µM (inactive)
GI50 (SF-539): > 100 µM (inactive)
GI50 (SK-MEL-5): > 100 µM (inactive)
GI50 (SN12C): > 100 µM (inactive)
GI50 (SNB-19): > 100 µM (inactive)

C[N+]1(CCCCN2c3ccccc3Sc3cc(N=[N+]=[N-])ccc32)CCN(C(=O)CCNC(=O)Cc2ccc(C(=O)c3ccccc3)cc2)CC1
GI50 (786-0): 27 µM (inactive)
GI50 (A498): 26.4 µM (inactive)
GI50 (ACHN): 19.2 µM (inactive)
GI50 (BT-549): 29.2 µM (inactive)
GI50 (COLO 205): 14.7 µM (inactive)
GI50 (HCC 2998): 16.1 µM (inactive)
GI50 (HCT-116): 25.9 µM (inactive)
GI50 (HOP-62): 22.6 µM (inactive)
GI50 (HOP-92): 18.9 µM (inactive)
GI50 (Hs-578T): 34 µM (inactive)
GI50 (MOLT-4): 23.1 µM (inactive)
GI50 (NCI-H23): 26.4 µM (inactive)
GI50 (OVCAR-3): 20.4 µM (inactive)
GI50 (OVCAR-4): 21.2 µM (inactive)
GI50 (OVCAR-8): 34.7 µM (inactive)
GI50 (SF-295): 21.7 µM (inactive)
GI50 (SF-539): 32.9 µM (inactive)
GI50 (SK-MEL-5): 20.6 µM (inactive)
GI50 (SN12C): 21.2 µM (inactive)
GI50 (SNB-19): 26.9 µM (inactive)

C=C1C(=O)OC2CC(C)C3(O)CCC(=O)C3(C)CC12 (stereo not given)
GI50 (786-0): 21.3 µM (inactive)
GI50 (A498): 25.8 µM (inactive)
GI50 (ACHN): 17.5 µM (inactive)
GI50 (BT-549): 44.2 µM (inactive)
GI50 (COLO 205): 40 µM (inactive)
GI50 (HCC 2998): 23 µM (inactive)
GI50 (HCT-116): 31.1 µM (inactive)
GI50 (HOP-62): 28.2 µM (inactive)
GI50 (HOP-92): 57.1 µM (inactive)
GI50 (Hs-578T): 25.9 µM (inactive)
GI50 (MOLT-4): 22.2 µM (inactive)
GI50 (NCI-H23): 31.7 µM (inactive)
GI50 (OVCAR-3): 16 µM (inactive)
GI50 (OVCAR-4): 18.7 µM (inactive)
GI50 (OVCAR-8): 24.6 µM (inactive)
GI50 (SF-295): 40.5 µM (inactive)
GI50 (SF-539): 16.1 µM (inactive)
GI50 (SK-MEL-5): 36.6 µM (inactive)
GI50 (SN12C): 19.1 µM (inactive)
GI50 (SNB-19): 18.7 µM (inactive)

CC1=C(N2CC2)C(=O)C(C)=C(N2CC2)C1=O
GI50 (786-0): 0.0702 µM (active)
GI50 (A498): 0.178 µM (active)
GI50 (ACHN): 0.0315 µM (active)
GI50 (BT-549): 0.417 µM (active)
GI50 (COLO 205): 0.206 µM (active)
GI50 (HCC 2998): 0.161 µM (active)
GI50 (HCT-116): 0.206 µM (active)
GI50 (HOP-62): 0.102 µM (active)
GI50 (HOP-92): 0.17 µM (active)
GI50 (Hs-578T): 0.933 µM (active)
GI50 (MOLT-4): 0.0753 µM (active)
GI50 (NCI-H23): 0.0412 µM (active)
GI50 (OVCAR-3): 0.249 µM (active)
GI50 (OVCAR-4): 0.283 µM (active)
GI50 (OVCAR-8): 0.188 µM (active)
GI50 (SF-295): 0.127 µM (active)
GI50 (SF-539): 0.134 µM (active)
GI50 (SK-MEL-5): 0.155 µM (active)
GI50 (SN12C): 0.113 µM (active)
GI50 (SNB-19): 0.348 µM (active)

Cc1c(F)c(N)c2c(=O)cc(-c3ccc(N)c(F)c3)oc2c1F [AMINOFLAVONE]
GI50 (786-0): 14.2 µM (inactive)
GI50 (A498): 0.366 µM (active)
GI50 (ACHN): 15.7 µM (inactive)
GI50 (BT-549): 17.5 µM (inactive)
GI50 (COLO 205): 32.5 µM (inactive)
GI50 (HCC 2998): 19 µM (inactive)
GI50 (HCT-116): 12.1 µM (inactive)
GI50 (HOP-62): 12.7 µM (inactive)
GI50 (HOP-92): 23 µM (inactive)
GI50 (Hs-578T): 38.1 µM (inactive)
GI50 (MOLT-4): 46.9 µM (inactive)
GI50 (NCI-H23): 19.6 µM (inactive)
GI50 (OVCAR-3): 0.458 µM (active)
GI50 (OVCAR-4): 18.8 µM (inactive)
GI50 (OVCAR-8): 19.6 µM (inactive)
GI50 (SF-295): 15.6 µM (inactive)
GI50 (SF-539): 14.9 µM (inactive)
GI50 (SK-MEL-5): 20.4 µM (inactive)
GI50 (SN12C): 17.1 µM (inactive)
GI50 (SNB-19): 21 µM (inactive)
